Measurements published in US20250161338A1, “Compounds for Anti-aging Intervention” (AGENCY FOR SCIENCE, TECHNOLOGY AND RESEARCH, priority 2022, published 2025).

Assays:
[1] = test system: CEN.PK113-7D snflΔ deletion strain; assay: Growth sensitivity of SNFl gene deletion strain; format: cell-based, Saccharomyces cerevisiae; conditions: different concentrations; compared to wild-type strain
Text: The prototrophic wild-type Saccharomyces cerevisiae CEN.PK113-7D yeast strain genetic background (Euroscarf, Köhlerweg, Oberursel, Germany), and the Saccharomyces cerevisiae BY4743 strain (Euroscarf, Köhlerweg, Oberursel, Germany) were used. The CEN.PK113-7D snflΔ deletion strain was constructed. The standard rich Yeast-Extract Peptone Dextrose (YPD) medium (1% w/v Bacto yeast extract, 2% w/v Bacto peptone, and 2% w/v glucose) (BD, Franklin Lakes, New Jersey, United States of America), YPD agar (2.5% w/v Bacto agar) (BD, Franklin Lakes, New Jersey, United States of America), and synthetic defined (SD) medium (BD, Franklin Lakes, New Jersey, United States of America) used here contained 6.7 g/L Difco™ Yeast Nitrogen Base (without amino acids and with ammonium sulfate) (BD, Franklin Lakes, New Jersey, United States) and 2% w/v glucose. Rapamycin (Enzo Life Sciences, Farmingdale, New York, United States) stock solution was prepared in dimethyl sulfoxide (DMSO) (Sigma-Aldrich, St. Louis, Missouri, United States of America). […]

HEK293 cells = assay: CLS in human cells, PrestoBlue outgrowth assay (HEK293); format: cell-based
Method: (§1) Human embryonic kidney 293 (HEK293) cells (ATCC, Manassas, Virginia, United States of America), lung epithelial (A549) cells (ATCC, Manassas, Virginia, United States of America) and fibroblast (IMR90) cells (ATCC, Manassas, Virginia, United States of America) were cultured in the standard D10 medium, consisting of high-glucose DMEM (HyClone, Cytiva, Marlborough, Massachusetts, USA) supplemented with 10% Fetal Bovine Serum (FBS) (Gibco™, ThermoFisher Scientific, Waltham, Massachusetts, USA) and 1% Penicillin Streptomycin Solution (Gibco™, ThermoFisher Scientific, Waltham, Massachusetts, USA). All cells were cultured in a humidified incubator with 5% CO2 at 37° C.
(§2) The seeding, washing and trypsinization process was performed similarly to that for the crystal violet assay. 80,000 cells were seeded in a 96-well culture plate with or without compound treatment. At different age time points after seeding, floating dead cells were aspirated with exhausted D10 medium, cells were gently washed with 1×PBS to remove D10 medium residue and treated with 0.2 mL of 0.25% trypsin. […] After one day of growth in a 37° C. incubator with 5% CO2, the cell number was assessed with PrestoBlue™ Cell Viability Reagent (Invitrogen™, Waltham, Massachusetts, USA) according to the manufacturer's protocol. […] After incubation in a 37° C. incubator with 5% CO2 for 3 to 4 hours, reading was taken with a BioTek Synergy MX microplate reader (BioTek, Winooski, Vermont, United States) at excitation and emission wavelengths of 560 nm and 590 nm, respectively.
PrestoBlue (PB) is a resazurin-based reagent used to detect cell viability and traces of cytotoxicity in the medium. It produces results that can be detected both colorimetrically and fluorometrically. […] The resazurin component is reduced to form resorufin by live cells, resulting in a visible change from blue colour to red colour in the reagent, at the same time developing fluorescence, which can be easily detected by a microplate reader. […] The PB assay was easy to perform as the reagent is a commercially available as ready-to-use solution.

IMR90 cells [2] = assay: CLS in human cells, propidium iodide fluorescence-based method (IMR90); format: cell-based; conditions: sixth day after seeding
Method: as §1
The stock solution of rapamycin, hemin, 5-fluorouracil, atorvastatin, and methotrexate was prepared in DMSO, followed by serial dilution to form various concentrations used in the experiment. The final DMSO concentration was kept at 0.05% in all experiments. The stock solution of 2,5-anhydro-D-mannitol was prepared in D10 medium. The chemical library used in screening were tested at 1 μM concentrations. Controls used were the same as the solvent applied, DMSO or water.
The assay was performed by preparing the cells with PI (2 μg/mL or 5 μg/mL) in a D10 medium. […] At different age time points, reading was taken with a Synergy MX microplate reader (BioTek, Winooski, Vermont, United States) at 535 nm excitation and 617 nm emission.

IMR90 cells [3] = assay: CLS in human cells, PrestoBlue outgrowth assay (IMR90); format: cell-based
Method: as §1
as §2, with “treatment.” for “treatment. At different age time points after seeding, floating dead cells were aspirated with exhausted D10 medium, cells were gently washed with 1×PBS to remove D10 medium residue and treated with 0.2 mL of 0.25% trypsin.”, “respectively. […]” for “respectively.”

## OC[C@H]1O[C@H](CO)[C@@H](O)[C@@H]1O [2,5-AM, 2,5-anhydro-D-mannitol]
[1]
  growth of snflΔ deletion strain: inhibited the growth of snflΔ deletion strain compared to wild-type strain
HEK293 cells; 2.5 mM, HEK293
  more viable cells compared to the untreated group: 76.31%
HEK293 cells; 5 mM, HEK293
  more surviving cells relative to the untreated group: 123.7%
HEK293 cells; different concentrations, Day 4 normalized to Day 1 (FIG. 19)
  CLS of HEK293 cells by outgrowth method: Trends of lifespan extension
IMR90 cells [2]; 2.5 mM
  more live cells compared to the untreated control: 32.33%
IMR90 cells [2]; 5 mM
  more live cells compared to the untreated control: 48.08%
IMR90 cells [3]; 2.5 mM
  more surviving cells compared to the untreated group: 59.05%
IMR90 cells [3]; 5 mM
  more viable cells compared to the untreated group: 59.89%
